# From patent US20130317029A1 (PORTOLA PHARMACEUTICALS, INC., priority 2010, published 2013)
# Target: T1, full length active recombinant SYK enzyme (Homo sapiens, UniProt P43405)
# T1 construct: full length active recombinant SYK enzyme (Millipore, Calif.); purchased Millipore
# Experiment: Inhibition of Syk tyrosine phosphorylation activity (LANCE TR-FRET kinase assay)
# Type: biochemical
# Source text: This example illustrates methods for evaluating the compounds of the invention, along with results obtained for such assays. The in vitro and in vivo human Syk activities of the inventive compounds can be determined by various procedures known in the art, such as a test for their ability to inhibit the activity of human plasma Syk. […] The IC50 value is the concentration (in nM) of the compound required to provide 50% inhibition of human Syk proteolytic activity.
# Potency of candidate molecules for inhibiting Syk tyrosine phosphorylation activity is assessed by measuring the ability of a test compound to inhibit Syk-mediated tyrosine phosphorylation of a Syk-specific substrate.
# SYK tyrosine phosphorylation activity is measured using the LANCE™ Technology developed by Perkin Elmer Life and Analytical Sciences (Boston, Mass.). LANCE™ refers to homogeneous time resolved fluorometry applications using techniques such as time-resolved fluorescence resonance energy transfer assay (TR-FRET) (see generally for procedures in Perkin Elmer Application Note—How to Optimize a Tyrosine Kinase Assay Using Time Resolved Fluorescence-Based LANCE Detection, wwww.perkinelmer.com/lifesciences). The assay principle involves detection of a phosphorylated substrate using energy transfer from a phosphospecific europium-labeled antibody to streptavidin-allophycocyanin as an acceptor.
# To test the ability of candidate molecules to inhibit SYK tyrosine phosphorylation activity, molecules are reconstituted in 30% DMSO and serially diluted 1:3 with the final dilution containing DMSO in the absence of the candidate molecule. The final DMSO concentration in the assay is 3%. Kinase assays are performed as a two part reaction. The first reaction is a kinase reaction and which comprises of a candidate molecule, full length active recombinant SYK enzyme (Millipore, Calif.) and biotin-labeled SYK-specific substrate biotin-[…]-OH. The second reaction involves termination of the kinase reaction and the simultaneous addition of the detection reagents-europium-labeled anti-phosphotyrosine reagent (Eu-W1024-PY100, Perkin Elmer, Boston, Mass.) and Streptavidin-Allophycocyanin detection reagent (SA-APC, Prozyme, Calif.). The kinase reaction is performed in a black U-bottom 96-well microtitre plate. The final reaction volume is 50 μL and contains a final concentration of 1 nM active SYK enzyme, 550 nM SYK-substrate, and 100 μM ATP diluted in a buffer containing 50 mM Tris pH 7.5, 5 mM MgCl2, and 1 mM DTT. The reaction is allowed to proceed for 1 hour at room temperature. The quench buffer contains 100 mM Tris pH 7.5, 300 mM NaCl2, 20 mM EDTA, 0.02% Brij35, and 0.5% BSA. The detection reagents are added to the reaction mixture at the following dilutions-1:500 for Eu-W1024-PY100 and 1:250 for SA-APC. The kinase reaction is terminated by the addition of 50 μL quench buffer containing the detection reagents. The detection is allowed to proceed for 1 hr at room temperature. Detection of the phosphorlated substrate in the absence and presence of inhibitors is measured in the TR-FRET instrument, Analyst HT (Molecular Probes, Sunnyvale, Calif.) and the condition for measurements are set up using CriterionHost Release 2.0 (Molecular Probes, Sunnyvale, Calif.). The settings used are a follows: excitation 360 nm, emission 665-7.5 nm, beam splitter 350 nm 50/50, flash 100 pulses, delay 60 us, integration 400 us, z-height 2 mm. Inhibition of SYK-tyrosine kinase activity is calculated as the maximum response observed in the presence of inhibitor, compared to that in the absence of inhibitor. IC50s were derived by non-linear regression analysis.
row,IC50,SMILES
1,10 to 100 nM,"CC(C)[C@@H](Nc1nc(Nc2cccc(-c3ncccn3)c2)c(C(N)=O)c(=O)[nH]1)C(N)=O [Example 28, (R)-2-(1-amino-3-methyl-1-oxobutan-2-ylamino)-6-oxo-4-(3-(pyrimidin-2-yl)phenylamino)-1,6-dihydropyrimidine-5-carboxamide]"
2,< 1 nM,CC(C)C[C@@H](Nc1nc(Nc2ccc3ncsc3c2)c(C(N)=O)c(=O)[nH]1)C(N)=O [Example 29]
3,< 1 nM,CC(C)[C@@H](Nc1nc(Nc2ccc3ncsc3c2)c(C(N)=O)c(=O)[nH]1)C(N)=O [Example 30]
4,< 1 nM,CC[C@@H](Nc1nc(Nc2ccc3ncsc3c2)c(C(N)=O)c(=O)[nH]1)C(N)=O [Example 31]
5,1 to 10 nM,CC(C)C[C@@H](Nc1nc(Nc2cccc(-n3cccn3)c2)c(C(N)=O)c(=O)[nH]1)C(N)=O [Example 32]
6,1 to 10 nM,CC(C)[C@@H](Nc1nc(Nc2cccc(-n3cccn3)c2)c(C(N)=O)c(=O)[nH]1)C(N)=O [Example 33]
7,1 to 10 nM,CC[C@@H](Nc1nc(Nc2cccc(-n3cccn3)c2)c(C(N)=O)c(=O)[nH]1)C(N)=O [Example 34]
8,< 1 nM,"CC(C)C[C@@H](Nc1nc(Nc2ccc3cn[nH]c3c2)c(C(N)=O)c(=O)[nH]1)C(N)=O [Example 35, (R)-4-(1H-indazol-6-ylamino)-2-(1-amino-4-methyl-1-oxopentan-2-ylamino)-6-oxo-1,6-dihydropyrimidine-5-carboxamide]"
9,< 1 nM,CC[C@@H](Nc1nc(Nc2ccc3cn[nH]c3c2)c(C(N)=O)c(=O)[nH]1)C(N)=O [Example 36]
10,< 1 nM,NC(=O)c1c(Nc2cccc(-n3nccn3)c2)nc(N[C@@H]2CCCNC2)[nH]c1=O [Example 37]
11,1 to 10 nM,NC(=O)c1c(Nc2cccc(-c3ncccn3)c2)nc(N[C@@H]2CCCC[C@@H]2N)[nH]c1=O [Example 38]
12,1 to 10 nM,"CC[C@@H](Nc1nc(Nc2cccc(OC)c2)c(C(N)=O)c(=O)[nH]1)C(N)=O [Example 39, (R)-2-(1-amino-1-oxobutan-2-ylamino)-4-(3-(methoxy)phenylamino)-6-oxo-1,6-dihydropyrimidine-5-carboxamide]"
13,1 to 10 nM,"CC(C)C[C@@H](Nc1nc(Nc2cccc(-c3ccccn3)c2)c(C(N)=O)c(=O)[nH]1)C(N)=O [Example 40, (R)-2-(1-amino-4-methyl-1-oxopentan-2-ylamino)-6-oxo-4-(3-(pyridin-2-yl)phenylamino)-1,6-dihydropyrimidine-5-carboxamide]"
14,1 to 10 nM,"CC[C@@H](Nc1nc(Nc2cccc(-c3ccccn3)c2)c(C(N)=O)c(=O)[nH]1)C(N)=O [Example 41, (R)-2-(1-amino-1-oxobutan-2-ylamino)-6-oxo-4-(3-(pyridin-2-yl)phenylamino)-1,6-dihydropyrimidine-5-carboxamide]"
15,10 to 100 nM,"NC(=O)c1c(Nc2ccc(S(N)(=O)=O)cc2)nc(NC2CC2)[nH]c1=O [Example 42, 2-(cyclopropylamino)-6-oxo-4-(4-sulfamoylphenylamino)-1,6-dihydropyrimidine-5-carboxamide]"
16,> 1000 nM,"CC(=O)N(C)c1ccc(Nc2nc(NC3CC3)[nH]c(=O)c2C(N)=O)cc1 [Example 43, 2-(cyclopropylamino)-4-(4-(N-methylacetamido)phenylamino)-6-oxo-1,6-dihydropyrimidine-5-carboxamide]"
17,> 1000 nM,"NC(=O)c1c(NC2CC2)nc(Nc2ccc(S(N)(=O)=O)cc2)[nH]c1=O [Example 44, 4-(cyclopropylamino)-6-oxo-2-(4-sulfamoylphenylamino)-1,6-dihydropyrimidine-5-carboxamide]"

row,IC50,SMILES
1,> 1000 nM,"NC(=O)c1c(NC2CCC2)nc(Nc2ccc(S(N)(=O)=O)cc2)[nH]c1=O [Example 45, 4-(cyclobutylamino)-6-oxo-2-(4-sulfamoylphenylamino)-1,6-dihydropyrimidine-5-carboxamide]"
2,> 1000 nM,"CC(=O)N1CCN(c2ccc(Nc3nc(Nc4ccc(N5CCN(C(C)=O)CC5)cc4)c(C(N)=O)c(=O)[nH]3)cc2)CC1 [Example 46, 2,4-bis(4-(4-acetylpiperazin-1-yl)phenylamino)-6-oxo-1,6-dihydropyrimidine-5-carboxamide]"
3,> 1000 nM,"CC(=O)N1CCN(c2ccc(Nc3nc(NC4CCC4)c(C(N)=O)c(=O)[nH]3)cc2)CC1 [Example 47, 2-(4-(4-acetylpiperazin-1-yl)phenylamino)-4-(cyclobutylamino)-6-oxo-1,6-dihydropyrimidine-5-carboxamide]"
4,> 1000 nM,"NC(=O)c1c(O)nc(NC2CCCCC2N)nc1NC1CC1 (stereo not drawn) [Example 48, 2-(2-aminocyclohexylamino)-4-(cyclopropylamino)-6-hydroxypyrimidine-5-carboxamide]"
5,10 to 100 nM,"Cc1cc(C)cc(Nc2nc(NCC(N)=O)[nH]c(=O)c2C(N)=O)c1 [Example 49, 2-(2-amino-2-oxoethylamino)-4-(3,5-dimethylphenylamino)-6-oxo-1,6-dihydropyrimidine-5-carboxamide]"
6,100 to 1000 nM,"COc1nc(NCC(N)=O)nc(Nc2cc(C)cc(C)c2)c1C(N)=O [Example 50, 2-(2-amino-2-oxoethylamino)-4-(3,5-dimethylphenylamino)-6-methoxypyrimidine-5-carboxamide]"
7,1 to 10 nM,"C[C@H](N)CNc1nc(Nc2ccc3ncccc3c2)c(C(N)=O)c(=O)[nH]1 [Example 51, (S)-2-(2-aminopropylamino)-6-oxo-4-(quinolin-6-ylamino)-1,6-dihydropyrimidine-5-carboxamide]"
8,> 1000 nM,"CCNc1nc(Nc2cccc(C)c2)c(C(N)=O)c(OCCCN)n1 [Example 52, 4-(m-toluidino)-6-(3-aminopropoxy)-2-(ethylamino)pyrimidine-5-carboxamide]"
9,> 1000 nM,"Cc1cccc(Nc2nc(NC[C@H](C)N)nc(OCCO)c2C(N)=O)c1 [Example 53, (S)-4-(m-toluidino)-2-(2-aminopropylamino)-6-(2-hydroxyethoxy)pyrimidine-5-carboxamide]"
10,> 1000 nM,"Cc1cc(C)cc(Nc2nc(NC[C@H](C)N)[nH]c(=O)c2C(N)=O)c1 [Example 54, (S)-2-(2-aminopropylamino)-4-(3,5-dimethylphenylamino)-6-oxo-1,6-dihydropyrimidine-5-carboxamide]"
11,> 1000 nM,"Cc1cc(C)cc(Nc2nc(N[C@H](CC(C)C)C(N)=O)[nH]c(=O)c2C(N)=O)c1 [Example 55, (R)-2-(1-amino-4-methyl-1-oxopentan-2-ylamino)-4-(3,5-dimethylphenylamino)-6-oxo-1,6-dihydropyrimidine-5-carboxamide]"
12,> 1000 nM,"Cc1cc(C)cc(Nc2nc(N[C@H](C)C(N)=O)[nH]c(=O)c2C(N)=O)c1 [Example 56, (R)-2-(1-amino-1-oxopropan-2-ylamino)-4-(3,5-dimethylphenylamino)-6-oxo-1,6-dihydropyrimidine-5-carboxamide]"
13,100 to 1000 nM,"Cc1cc(C)cc(Nc2nc(NC3CCCCC3N)[nH]c(=O)c2C(N)=O)c1 (stereo not drawn) [Example 57, 2-(2-aminocyclohexylamino)-4-(3,5-dimethylphenylamino)-6-oxo-1,6-dihydropyrimidine-5-carboxamide]"
14,> 1000 nM,"CC(=O)N(C)c1ccc(Nc2nc(NC3CC3)c(C(N)=O)c(=O)[nH]2)cc1 [Example 58, 4-(cyclopropylamino)-2-(4-(N-methylacetamido)phenylamino)-6-oxo-1,6-dihydropyrimidine-5-carboxamide]"
15,> 1000 nM,"CC(=O)N1CCN(c2ccc(Nc3nc(Nc4cc(C)cc(C)c4)c(C(N)=O)c(=O)[nH]3)cc2)CC1 [Example 59, 2-(4-(4-acetylpiperazin-1-yl)phenylamino)-4-(3,5-dimethylphenylamino)-6-oxo-1,6-dihydropyrimidine-5-carboxamide]"
16,> 1000 nM,"Cc1cc(C)cc(Nc2nc(NC3CC3)[nH]c(=O)c2C(N)=O)c1 [Example 60, 2-(cyclopropylamino)-4-(3,5-dimethylphenylamino)-6-oxo-1,6-dihydropyrimidine-5-carboxamide]"
